Data as given in article PMC5789847, “Bismuth antimicrobial drugs serve as broad-spectrum metallo-β-lactamase inhibitors” (Nature Communications, 2018).

What was measured:
[1] = tested on: NDM-K. pneumonia (NDM-1^+); assay: Microdilution MIC/MBC and checkerboard assay; format: cell-based, Klebsiella pneumonia; conditions: NDM-K. pneumonia (NDM-KP)
Experimental: (§1) MIC values were determined by standard broth micro-dilution method (Clinical and Laboratory Standards Institute (CLSI) M100-S20, 2010)[64]. Briefly, bacterial cells were cultured in LB broth overnight at 37 °C at 250 rpm and the OD was measured at 600 nm (OD600). The bacterial density was adjusted to about 1 × 10^6 CFU mL^−1 and checked by CFU counting on agar plates afterwards. Tested antibiotics or Bi(III) compounds were added triplicately into individual wells of flat-bottomed 96-well plates and performed 2-fold serial dilution, followed by addition of prepared bacterial inocula. The plate was then incubated at 37 °C for overnight. […] The MIC was determined as the lowest concentration of a drug that could inhibit the growth of microorganism by both visual reading and OD reading at 600 nm using a microtiter plate reader.
(§2) Resulting growth (or lack of growth) was examined after overnight culturing and the lowest concentration that inhibits 99.9% of the original culture was taken as MBC.
(§3) Other procedures were kept strictly the same. […] Synergism was defined when FICI ≤ 0.5, indifference was defined when FICI > 0.5 and < 4, and antagonism was defined when FICI≥4[65]. […] All of the determinations were performed at least in triplicate on different days.

NDM-Rosetta OX = assay: Microdilution MIC assay; format: cell-based, E. coli; conditions: Escherichia coli, CBS0, read-out: MIC of MER, CBS at 0, NDM-Rosetta OX (NDM-1 overexpressing); CBS 0 µg mL-1
Experimental: For the test of NDM-Rosetta OX, the growth condition briefly goes as follow. Overnight culture of NDM-Rosetta was 1000-fold diluted into fresh LB medium and regrew to OD ~0.6. The overexpression of NDM-1 was induced by addition of 1 mM isopropyl β-D-1-thiogalactopyranoside (IPTG) for 4 h at 37 °C. The following susceptibility test was performed as described in the Microdilution MIC and MBC assay section in the methodology by using the resulting bacterial pellets with the supplementation of 200 µM IPTG.
(§4) Other procedures were kept strictly the same.

NDM-HK PCV = assay: Murine peritonitis infection with NDM-1-negative bacteria; format: in vivo, BALB/c mice; conditions: identical dose of MER, lethal dose of NDM-HK PCV
NDM-HK [2] = assay: In vitro cell infection assay (MDCK cells); format: cell-based, E. coli; conditions: MOI 200, MER at 2-fold MIC alone, overnight
Experimental: MDCK cell was cultured in minimum essential Media (MEM) supplemented with fetal bovine serum (FBS, 10%) and grown at 37 °C in 5% CO2-humidified atmosphere for 3 days. About 1.0 × 10^5 MDCK cells were seeded per well in 24-well plates and incubated as described above for 48 h to ensure confluency. Logarithmic cultures of NDM-HK were washed with PBS for three times and re-suspended in MEM/10% FBS resulting in the initial bacterial density of about 2.0 × 10^7 CFU mL^−1. Then, 500 μL of bacterial suspension were added to each well and substituted for the previous MDCK culture medium. The plates were centrifuged at 800 × g for 10 min and then incubated for another 6 h, executing the bacterial infection at multiplicity of infection (MOI) of 200. We then used two infection models for examination, viz, the cell-associated bacterial infection and cell-invaded bacterial infection. The cell-associated bacteria are herein defined as bacteria that attach to, penetrate, or transcytose in MDCK cells, while the cell-invaded bacteria are defined as bacteria that penetrate or transcytose MDCK cells. For the cell-invaded infection, the infected cells were incubated in culture medium supplemented with ciprofloxacin (100 µg mL^−1) for 1 h to remove extracellular bacteria. Then, the treated cells were washed vigorously with PBS for six times and replenished with culture medium. For the cell-associated infection, the infected cells were only washed vigorously with PBS for six times to remove unbound bacteria. The infected MDCK cells were then exposed to either MER or CBS, or their combination for overnight under identical cell culture condition. Cells in the absence of drugs served as a control. The bacterial loads were examined by lysing MDCK cells with 1% Triton X-100 in PBS and serially diluting the resulting lysates to enumerate bacterial colonies by agar plating. The assay was performed in triplicate, repeated three times, and results were expressed as average ± SD.

IMP-BL21 (IMP-4^+) = assay: microbe, parasite or virus in culture; format: cell-based, E. coli
Experimental: as §1, §2, §3

NDM-HK (NDM-1^+) = assay: microbe, parasite or virus in culture; format: cell-based, E. coli; conditions: Escherichia coli
Experimental: as §1, §2, §3

VIM-BL21 (VIM-2^+) = assay: microbe, parasite or virus in culture; format: cell-based, E. coli
Experimental: as §1, §2, §3

NDM-HK [3] = assay: Murine peritonitis infection, mucin-assisted model; format: in vivo, BALB/c mice; conditions: 2% mucin, i.p. twice daily
Excerpt: All experiments were approved by, and performed in accordance with the guidelines approved by Committee on the Use of Live Animals in Teaching and Research (CULATR), the University of Hong Kong. A total of 6–8-week-old, female BALB/c mice (18–22 g) were purchased from Charles River Laboratories, Inc. and were used in all mouse studies. The animals were randomized to cages for each experiment.
In mucin-assisted model, for infection with NDM-1-positive bacteria, an overnight culture of NDM-HK was performed 1:250 dilution in 100 mL LB broth and re-grew to about OD600 0.3 in a 500-mL flask after 2.5 h shaking at 37 °C, 250 rpm. Bacterial pellets were collected and washed by PBS buffer three times for further use. Mice were infected intraperitoneally (i.p.) with a dose of 1 × 10^5 CFU of bacteria in PBS supplemented with 2% mucin. […] Twice-daily treatment via i.p. injection was continued throughout the whole experimental course. For the infection with NDM-1-negative bacteria, all the operations of infection were similar to those used for NDM-HK, except that NDM-HK PCV was used as infection-causing bacteria. […] Twice-daily treatment via i.p. injection was continued throughout the whole experimental course. Body weights and mice survival were monitored till endpoint of the experiment.

NDM-BL21 = assay: Microdilution MIC assay; format: cell-based, E. coli; conditions: Escherichia coli, CBS0, read-out: MIC of MER, CBS at 0
Excerpt: as §4

NDM-Rosetta = assay: Microdilution MIC assay; format: cell-based, E. coli; conditions: Escherichia coli, CBS0, read-out: MIC of MER, CBS at 0
Excerpt: as §4

C208A-Rosetta = assay: Microdilution MIC assay; format: cell-based, E. coli; conditions: Escherichia coli, CBS0, read-out: MIC of MER, CBS at 0
Experimental: For the test of C208A-Rosetta, the growth condition briefly goes as follow. Overnight culture of C208A-Rosetta was diluted into fresh LB medium (1000-fold) and regrew to OD ~0.6. The overexpression of NDM-1-C208A was induced by addition of 200 μM isopropyl β-D-1-thiogalactopyranoside (IPTG) for 18 h at 25 °C. The following susceptibility test was performed as described in the Microdilution MIC and MBC assay section in the methodology by using the resulting bacterial pellets with the supplementation of 200 μM IPTG.
as §4

[4] = tested on: NDM-C. freundii (NDM-1^+); assay: Microdilution MIC/MBC and checkerboard assay; format: cell-based, Citrobacter freundii; conditions: NDM-C. freundii (NDM-CF)
Experimental: as §1, §2, §3

NDM-HK [5] = assay: Resistance study: MPC and mutation frequency; format: cell-based, E. coli; conditions: no CBS
[6] = Escherichia coli, read-out: MBC of MER alone
[7] = Escherichia coli, read-out: MIC of MER alone

For `C[C@@H](O)[C@H]1C(=O)N2C(C(=O)O)=C(S[C@@H]3CN[C@H](C(=O)N(C)C)C3)[C@H](C)[C@H]12` [MER, meropenem], the MBC ([1]; Klebsiella pneumoniae, read-out: MBC of MER alone) was 16 µg/mL, the MIC ([1]; Klebsiella pneumoniae, read-out: MIC of MER alone) was 16 µg/mL and the “MBC of MER alone” value [1] was 16/16 µg mL^-1. The “MIC of MER alone” value [1] was 16/16 µg mL^-1, the MIC (NDM-Rosetta OX) was 256 µg/mL and the “outcome of MER monotherapy in mice infected with NDM-HK PCV” value (NDM-HK PCV) was “cured all the mice”. The “viable bacterial loads, cell-associated infection” value (NDM-HK [2]) was ~10^6 CFU, the MBC (IMP-BL21 (IMP-4^+); [6]) was 32 µg/mL and the MIC (IMP-BL21 (IMP-4^+); [7]) was 32 µg/mL. The “MBC of MER alone” value (IMP-BL21 (IMP-4^+); IMP-BL21) was 32/32 µg mL^-1, the “MIC of MER alone” value (IMP-BL21 (IMP-4^+); IMP-BL21) was 32/32 µg mL^-1 and the MIC (NDM-HK (NDM-1^+); CBS0, read-out: MIC of MER alone) was 16 µg/mL. It also gave an MBC (NDM-HK (NDM-1^+); read-out: MBC of MER alone) of 16 µg/mL, an MBC (VIM-BL21 (VIM-2^+); [6]) of 32 µg/mL and an MIC (VIM-BL21 (VIM-2^+); [7]) of 32 µg/mL. For the same compound, the “MBC of MER alone” value (VIM-BL21 (VIM-2^+); VIM-BL21) was 32/32 µg mL^-1, the “MIC of MER alone” value (VIM-BL21 (VIM-2^+); VIM-BL21) was 32/32 µg mL^-1 and the “mice rescued at endpoint, MER monotherapy” value (NDM-HK [3]) was “two of the eight mice”. The MIC (NDM-BL21) was 16 µg/mL, the MIC (NDM-Rosetta) was 32 µg/mL and the MIC (C208A-Rosetta) was 0.12 µg/mL. For the same compound, the MBC ([4]; Citrobacter freundii, read-out: MBC of MER alone) was 8 µg/mL, the MIC ([4]; Citrobacter freundii, read-out: MIC of MER alone) was 8 µg/mL and the “MBC of MER alone” value [4] was 8/8 µg mL^-1. The “MIC of MER alone” value [4] was 8/8 µg mL^-1 and the “MPC of MER alone” value (NDM-HK [5]) was 32 folds of MIC.
